Six compounds from patent publication US8236822B2, “Compounds as cannabinoid receptor ligands” (Abbott Laboratories, priority 2009, dated 2012) can be followed below.

As a reminder, the Ki is the equilibrium dissociation constant of an inhibitor or competing ligand from its target.

Like-named read-outs stand apart in the source and are kept apart here.

The target in one test is T1, human CB2 receptors (Homo sapiens, UniProt P34972).
T1 construct: expressed in transfected cells; host or cells: HEK293
T1 sequence (P34972 whole entry): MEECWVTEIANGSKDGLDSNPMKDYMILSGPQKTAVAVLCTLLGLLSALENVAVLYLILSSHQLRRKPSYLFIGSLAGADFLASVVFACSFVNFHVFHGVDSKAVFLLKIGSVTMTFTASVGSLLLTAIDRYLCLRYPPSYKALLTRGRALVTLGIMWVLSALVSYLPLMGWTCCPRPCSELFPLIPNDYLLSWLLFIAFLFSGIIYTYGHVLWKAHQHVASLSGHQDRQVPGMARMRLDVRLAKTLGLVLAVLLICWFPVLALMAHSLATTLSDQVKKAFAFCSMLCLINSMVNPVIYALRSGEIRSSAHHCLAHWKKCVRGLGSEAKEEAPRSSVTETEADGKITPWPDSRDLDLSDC
The test can be described thus: human CB2 radioligand binding assay ([3H]CP-55,940 competition). The method, then:
(§1) In Vitro Methods—CB2 and CB1Radioligand Binding Assays:
(§2) The CB1 and CB2 radioligand binding assays described herein are utilized to ascertain the selectivity of compounds of the present application for binding to CB2 relative to CB′ receptors.
(§3) HEK293 cells stably expressing human CB2 receptors were grown until a confluent monolayer was formed. Briefly, the cells were harvested and homogenized in TE buffer (50 mM Tris-HCl, 1 mM MgCl2, and 1 mM EDTA) using a polytron for 2×10 second bursts in the presence of protease inhibitors, followed by centrifugation at 45,000×g for 20 minutes. The final membrane pellet was re-homogenized in storage buffer (50 mM Tris-HCl, 1 mM MgCl2, and 1 mM EDTA and 10% sucrose) and frozen at −78° C. until used. Saturation binding reactions were initiated by the addition of membrane preparation (protein concentration of 5 μg/well for human CB2) into wells of a deep well plate containing [^3H]CP-55,940 (120 Ci/mmol, a nonselective CB agonist commercially available from Tocris) in assay buffer (50 mM Tris, 2.5 mM EDTA, 5 mM MgCl2, and 0.5 mg/mL fatty acid free BSA, pH 7.4). After 90 min incubation at 30° C., binding reaction was terminated by the addition of 300 μL/well of cold assay buffer followed by rapid vacuum filtration through a UniFilter-96 GF/C filter plates (pre-soaked in 1 mg/mL BSA for 2 hours). The bound activity was counted in a TopCount using Microscint-20. Saturation experiments were conducted with twelve concentrations of [^3H]CP-55,940 ranging from 0.01 to 8 nM. Competition experiments were conducted with 0.5 nM [^3H]CP-55,940 and five concentrations (0.01 nM to 10 μM) of displacing ligands. The addition of 10 μM unlabeled CP-55,940 (Tocris, Ellisville, Mo.) was used to assess nonspecific binding.

In another test the target is T2, rat CB2 receptors (Rattus norvegicus, UniProt Q9QZN9).
T2 construct: expressed in transfected cells; host or cells: HEK293
T2 sequence (Q9QZN9 1-360): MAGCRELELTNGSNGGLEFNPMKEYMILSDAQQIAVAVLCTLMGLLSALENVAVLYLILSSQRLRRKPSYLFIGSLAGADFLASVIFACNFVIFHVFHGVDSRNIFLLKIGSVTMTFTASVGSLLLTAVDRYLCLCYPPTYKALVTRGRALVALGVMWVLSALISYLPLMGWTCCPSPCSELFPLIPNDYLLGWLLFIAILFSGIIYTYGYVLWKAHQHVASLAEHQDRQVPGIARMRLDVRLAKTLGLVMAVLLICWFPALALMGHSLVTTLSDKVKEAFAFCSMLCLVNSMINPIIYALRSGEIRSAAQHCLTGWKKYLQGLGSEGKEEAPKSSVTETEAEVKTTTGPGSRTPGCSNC
The test is described as follows: rat CB2 radioligand binding assay ([3H]CP-55,940 competition). Here is the method:
as §1, §2
as §3, with “expressing rat” for “expressing human”, “of 20” for “of 5”, “for rat” for “for human”, “After 45” for “After 90”, “concentrations of displacing ligands selected from the range of 0.01” for “concentrations (0.01”, “10 μM.” for “10 μM) of displacing ligands.”

Regarding `Cn1c(C(C)(C)C)c/c(=N\C(=O)c2cc(C(F)(F)F)ccc2OCCNC(C)(C)C)n1CC1CC1` [Example 1, 2-[2-(tert-butylamino)ethoxy]-N-[(3E)-5-tert-butyl-2-(cyclopropylmethyl)-1-methyl-1,2-dihydro-3H-pyrazol-3-ylidene]-5-(trifluoromethyl)benzamide], the Ki on human CB2 receptors turned out to be 0.123 µM; at rat CB2 receptors it was 0.0442 µM.

In turn, `Cn1c(C(C)(C)C)c/c(=N\C(=O)c2cc(C(F)(F)F)ccc2OC2CN(C(C)(C)C)C2)n1CC1CC1` [Example 2, 2-[(1-tert-butylazetidin-3-yl)oxy]-N-[(3E)-5-tert-butyl-2-(cyclopropylmethyl)-1-methyl-1,2-dihydro-3H-pyrazol-3-ylidene]-5-(trifluoromethyl)benzamide] showed a Ki on rat CB2 receptors of 0.459 µM.

For `CCCCn1nc(C(C)(C)C)s/c1=N\C(=O)c1cc(C(F)(F)F)ccc1OC1CN(C(C)(C)C)C1` [Example 3, 2-[(1-tert-butylazetidin-3-yl)oxy]-N-[(2Z)-3-butyl-5-tert-butyl-1,3,4-thiadiazol-2(3H)-ylidene]-5-(trifluoromethyl)benzamide], the Ki on human CB2 receptors was 0.0464 µM; on rat CB2 receptors, 0.0291 µM.

Take `CCCCn1/c(=N/C(=O)c2cc(C(F)(F)F)ccc2OCCNC(C)(C)C)cc(C(C)(C)C)n1C` [Example 4, 2-[2-(tert-butylamino)ethoxy]-N-[(3E)-2-butyl-5-tert-butyl-1-methyl-1,2-dihydro-3H-pyrazol-3-ylidene]-5-(trifluoromethyl)benzamide]: the Ki at rat CB2 receptors (HEK293 membranes expressing rat CB2, 0.5 nM [3H]CP-55,940, read-out: rat CB2 binding (Ki)) was found to be 0.104 µM.

In turn, `Cn1c(C(C)(C)C)c/c(=N\C(=O)c2cc(C(F)(F)F)ccc2OCCNC(C)(C)C)n1CC1CCC1` [Example 5, 2-[2-(tert-butylamino)ethoxy]-N-[(3E)-5-tert-butyl-2-(cyclobutylmethyl)-1-methyl-1,2-dihydro-3H-pyrazol-3-ylidene]-5-(trifluoromethyl)benzamide] showed a Ki on human CB2 receptors of 0.199 µM.

On to `CN1CC[C@H](Oc2ccc(C(F)(F)F)cc2C(=O)/N=c2\cc(C(C)(C)C)n(C)n2CC2CCC2)C1` [Example 6, N-[(3E)-5-tert-butyl-2-(cyclobutylmethyl)-1-methyl-1,2-dihydro-3H-pyrazol-3-ylidene]-2-{[(3S)-1-methylpyrrolidin-3-yl]oxy}-5-(trifluoromethyl)benzamide], for which the Ki on rat CB2 receptors amounted to 0.42 µM.
